Measured values from ChEMBL document CHEMBL1821599 (J Med Chem, 2011).
pEC50, pIC50: −log10 of the molar value. Active and inactive are the calls of the source. The rule behind the calls is not given here. Where a SMILES comes first, the peptide text is derived from it. Bridges are numbered along the chain shown (N, C = ends). [ ]: non-standard residue; d: D form.

Tests used:
[1] = target: T1, Somatostatin receptor type 3 (Homo sapiens, UniProt P32745); test: Induction of sst3 receptor internalization in human HEK cells after 30 mins by immunofluorescence microscopy; assay type: cell-based; conditions: HEK293
T1 sequence (P32745 whole entry): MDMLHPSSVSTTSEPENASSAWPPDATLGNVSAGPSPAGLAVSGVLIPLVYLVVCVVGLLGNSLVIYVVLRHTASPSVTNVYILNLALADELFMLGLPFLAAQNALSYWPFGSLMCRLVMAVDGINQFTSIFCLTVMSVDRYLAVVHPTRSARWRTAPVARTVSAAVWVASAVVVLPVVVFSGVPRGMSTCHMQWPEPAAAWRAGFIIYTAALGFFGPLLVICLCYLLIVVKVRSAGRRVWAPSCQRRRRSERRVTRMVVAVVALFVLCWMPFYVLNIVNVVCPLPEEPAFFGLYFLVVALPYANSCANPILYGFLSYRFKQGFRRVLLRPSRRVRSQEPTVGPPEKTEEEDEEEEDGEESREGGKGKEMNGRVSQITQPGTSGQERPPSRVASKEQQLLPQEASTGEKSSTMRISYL

[2] = target: T1, Somatostatin receptor type 3; test: Partial agonist activity at human sst3 receptor expressed in CCL39 cells after 5 hrs by luciferase reporter gene assay; assay type: functional, cell-based
[3] = target: T1, Somatostatin receptor type 3; test: Displacement of 125I-[LTT]-SRIF-28 from human sst3 receptor in CCL39 cells after 2 hrs by autoradiography; assay type: cell-based
[4] = target: T1, Somatostatin receptor type 3; test: Induction of sst3 receptor internalization in human HEK cells at 10 uM after 30 mins by immunofluorescence microscopy; assay type: cell-based; conditions: HEK293
[5] = target: Somatostatin receptor type 2 (Homo sapiens, UniProt P30874); test: Displacement of 125I-[LTT]-SRIF-28 from human sst2 receptor in CCL39 cells after 2 hrs by autoradiography; assay type: cell-based
Chain of Somatostatin receptor type 2 (P30874 whole entry): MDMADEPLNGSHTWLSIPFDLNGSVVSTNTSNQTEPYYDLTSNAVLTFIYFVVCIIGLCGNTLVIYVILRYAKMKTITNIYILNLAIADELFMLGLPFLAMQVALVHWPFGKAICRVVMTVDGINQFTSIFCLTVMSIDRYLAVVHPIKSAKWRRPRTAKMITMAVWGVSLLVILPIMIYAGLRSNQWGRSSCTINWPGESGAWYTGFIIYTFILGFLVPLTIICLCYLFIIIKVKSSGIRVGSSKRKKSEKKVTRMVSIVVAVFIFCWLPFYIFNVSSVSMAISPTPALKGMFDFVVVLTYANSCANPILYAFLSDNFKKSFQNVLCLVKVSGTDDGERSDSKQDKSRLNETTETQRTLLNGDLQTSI

[6] = target: Somatostatin receptor type 5 (Homo sapiens, UniProt P35346); test: Displacement of 125I-[LTT]-SRIF-28 from human sst5 receptor in HEK293 cells after 2 hrs by autoradiography; assay type: cell-based
Chain of Somatostatin receptor type 5 (P35346 whole entry): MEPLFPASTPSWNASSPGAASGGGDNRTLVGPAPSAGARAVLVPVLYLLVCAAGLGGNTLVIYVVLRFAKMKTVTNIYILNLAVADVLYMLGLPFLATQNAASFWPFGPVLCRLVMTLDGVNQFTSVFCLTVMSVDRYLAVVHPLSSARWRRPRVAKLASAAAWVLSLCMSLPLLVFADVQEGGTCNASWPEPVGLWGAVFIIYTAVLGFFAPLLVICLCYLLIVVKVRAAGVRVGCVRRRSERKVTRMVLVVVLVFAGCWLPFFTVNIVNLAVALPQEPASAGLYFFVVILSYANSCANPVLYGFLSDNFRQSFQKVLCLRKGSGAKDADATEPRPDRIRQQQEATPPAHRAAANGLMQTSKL

[7] = target: Somatostatin receptor type 1 (Homo sapiens, UniProt P30872); test: Displacement of 125I-[LTT]-SRIF-28 from human sst1 receptor in CHO cells after 2 hrs by autoradiography; assay type: cell-based
Chain of Somatostatin receptor type 1 (P30872 whole entry): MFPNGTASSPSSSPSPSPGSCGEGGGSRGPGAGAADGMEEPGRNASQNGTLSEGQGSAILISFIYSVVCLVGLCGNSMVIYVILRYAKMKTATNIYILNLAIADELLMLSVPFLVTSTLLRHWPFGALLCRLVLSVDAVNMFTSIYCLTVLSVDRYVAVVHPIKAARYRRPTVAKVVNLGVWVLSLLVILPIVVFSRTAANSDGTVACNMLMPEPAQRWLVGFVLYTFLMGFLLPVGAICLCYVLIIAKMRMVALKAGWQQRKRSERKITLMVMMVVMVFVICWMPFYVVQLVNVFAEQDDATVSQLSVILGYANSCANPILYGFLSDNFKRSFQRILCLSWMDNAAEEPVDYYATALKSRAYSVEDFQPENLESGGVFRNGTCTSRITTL

[8] = target: T1, Somatostatin receptor type 3; test: Inhibition of somatostatin-induced sst3 receptor internalization in human HEK cells at 10 uM after 30 mins by immunofluorescence microscopy; assay type: cell-based; conditions: HEK293
[9] = target: T1, Somatostatin receptor type 3; test: Partial antagonist activity at human sst3 receptor expressed in CCL39 cells assessed as inhibition of somatostatin-induced luciferase reporter gene expression at 10 uM after 5 hrs; assay type: functional, cell-based
[10] = target: Somatostatin receptor type 4 (Homo sapiens, UniProt P31391); test: Displacement of 125I-[LTT]-SRIF-28 from human sst4 receptor in CCL39 cells after 2 hrs by autoradiography; assay type: cell-based
Chain of Somatostatin receptor type 4 (P31391 whole entry): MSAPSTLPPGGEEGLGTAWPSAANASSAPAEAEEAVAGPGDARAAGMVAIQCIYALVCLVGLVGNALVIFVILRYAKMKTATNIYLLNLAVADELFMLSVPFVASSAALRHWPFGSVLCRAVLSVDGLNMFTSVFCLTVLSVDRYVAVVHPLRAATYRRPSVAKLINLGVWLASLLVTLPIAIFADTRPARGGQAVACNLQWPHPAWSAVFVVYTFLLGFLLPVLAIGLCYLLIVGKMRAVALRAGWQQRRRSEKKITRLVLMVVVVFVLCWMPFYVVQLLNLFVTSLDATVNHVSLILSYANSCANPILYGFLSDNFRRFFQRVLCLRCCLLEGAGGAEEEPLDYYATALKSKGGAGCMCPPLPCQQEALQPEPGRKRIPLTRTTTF

[11] = target: T1, Somatostatin receptor type 3; test: Agonist activity at human sst3 receptor expressed in CCL39 cells after 5 hrs by luciferase reporter gene assay; assay type: functional, cell-based

SMILES: C[C@@H](O)[C@@H]1NC(=O)[C@H](CCCCN)NC(=O)[C@@H](Cc2cn(Cc3ccccc3)cn2)NC(=O)[C@H](Cc2ccccc2)NC(=O)[C@H](Cc2ccccc2)NC(=O)[C@@H](N)CSSC[C@@H](C(=O)O)NC(=O)[C@H](Cc2ccccc2)NC1=O
- Activity [1]: inactive
- pEC50 [2]: 6.52
- pIC50 [3]: 7.12
- Activity [4]: inactive
- pIC50 [5]: < 6.00
- pIC50 [6]: < 6.00
- pIC50 [7]: < 6.00
- Activity [8]: Active
- Activity [9]: Active
- pIC50 [10]: 6.23

SMILES: C[C@@H](O)[C@@H]1NC(=O)[C@H](CCCCN)NC(=O)[C@@H](Cc2ccc3ccccc3c2)NC(=O)[C@H](Cc2ccccc2)NC(=O)[C@H](Cc2ccccc2)NC(=O)[C@@H](N)CSSC[C@@H](C(=O)O)NC(=O)[C@H](Cc2ccccc2)NC1=O
- Activity [1]: Active
- pEC50 [11]: 9.28
- pIC50 [3]: 8.17
- pIC50 [5]: 6.76
- pIC50 [6]: 8.22
- pIC50 [7]: 6.22
- pIC50 [10]: 7.39

SMILES: C[C@H](N)C(=O)NCC(=O)N[C@H]1CSSC[C@@H](C(=O)O)NC(=O)[C@H](CO)NC(=O)[C@H]([C@@H](C)O)NC(=O)[C@H](Cc2ccccc2)NC(=O)[C@H]([C@@H](C)O)NC(=O)[C@H](CCCCN)NC(=O)[C@@H](Cc2ccc3ccccc3c2)NC(=O)[C@H](Cc2ccccc2)NC(=O)[C@H](Cc2ccccc2)NC(=O)[C@H](CC(N)=O)NC(=O)[C@H](CCCCN)NC1=O
- Activity [1]: Active
- pEC50 [11]: 9.64
- pIC50 [3]: 9.00
- pIC50 [5]: 8.80
- pIC50 [6]: 8.62
- pIC50 [7]: 8.39
- pIC50 [10]: 7.92

SMILES: C[C@@H](O)[C@@H]1NC(=O)[C@H](CCCCN)NC(=O)[C@H](Cc2cn(Cc3ccccc3)cn2)NC(=O)[C@H](Cc2ccccc2)NC(=O)[C@H](Cc2ccccc2)NC(=O)[C@@H](N)CSSC[C@@H](C(=O)O)NC(=O)[C@H](Cc2ccccc2)NC1=O
- Activity [1]: inactive
- pEC50 [2]: 6.79
- pIC50 [3]: 6.79
- Activity [4]: inactive
- pIC50 [5]: < 6.00
- pIC50 [6]: < 6.00
- pIC50 [7]: < 6.00
- Activity [8]: Active
- Activity [9]: Active
- pIC50 [10]: < 6.00

SMILES: C[C@H](N)C(=O)NCC(=O)N[C@H]1CSSC[C@@H](C(=O)O)NC(=O)[C@H](CO)NC(=O)[C@H]([C@@H](C)O)NC(=O)[C@H](Cc2ccccc2)NC(=O)[C@H]([C@@H](C)O)NC(=O)[C@H](CCCCN)NC(=O)[C@H](Cc2ccc(O)cc2)NC(=O)[C@H](Cc2ccccc2)NC(=O)[C@H](Cc2ccccc2)NC(=O)[C@H](CC(N)=O)NC(=O)[C@H](CCCCN)NC1=O
- Activity [1]: Active
- pEC50 [11]: 7.80
- pIC50 [3]: 7.89
- pIC50 [5]: 7.46
- pIC50 [6]: 6.25
- pIC50 [7]: 6.86
- pIC50 [10]: 7.60

SMILES: C[C@@H](O)[C@@H]1NC(=O)[C@H](CCCCN)NC(=O)[C@@H](Cc2c[nH]c3ccccc23)NC(=O)[C@H](Cc2ccccc2)NC(=O)[C@H](Cc2ccccc2)NC(=O)[C@@H](N)CSSC[C@@H](C(=O)O)NC(=O)[C@H](Cc2ccccc2)NC1=O (H-CFF[dW]KTFC-OH; disulfide 1-8)
- Activity [1]: Active
- pEC50 [11]: 8.48
- pIC50 [6]: 8.59

SMILES: C[C@H](N)C(=O)NCC(=O)N[C@H]1CSSC[C@@H](C(=O)O)NC(=O)[C@H](CO)NC(=O)[C@H]([C@@H](C)O)NC(=O)[C@H](Cc2ccccc2)NC(=O)[C@H]([C@@H](C)O)NC(=O)[C@H](CCCCN)NC(=O)[C@@H](Cc2cn(Cc3ccccc3)cn2)NC(=O)[C@H](Cc2ccccc2)NC(=O)[C@H](Cc2ccccc2)NC(=O)[C@H](CC(N)=O)NC(=O)[C@H](CCCCN)NC1=O
- Activity [1]: Active
- pEC50 [2]: 7.39
- pIC50 [3]: 7.82
- pIC50 [5]: 6.97
- pIC50 [6]: < 6.00
- pIC50 [7]: < 6.00
- Activity [9]: Active
- pIC50 [10]: < 6.00

SMILES: C[C@H](N)C(=O)NCC(=O)N[C@H]1CSSC[C@@H](C(=O)O)NC(=O)[C@H](CO)NC(=O)[C@H]([C@@H](C)O)NC(=O)[C@H](Cc2ccccc2)NC(=O)[C@H]([C@@H](C)O)NC(=O)[C@H](CCCCN)NC(=O)[C@H](Cc2cn(Cc3ccccc3)cn2)NC(=O)[C@H](Cc2ccccc2)NC(=O)[C@H](Cc2ccccc2)NC(=O)[C@H](CC(N)=O)NC(=O)[C@H](CCCCN)NC1=O
- Activity [1]: Active
- pEC50 [2]: 6.50
- pIC50 [3]: 6.88
- pIC50 [5]: < 6.00
- pIC50 [6]: < 6.00
- pIC50 [7]: < 6.00
- Activity [9]: Active
- pIC50 [10]: < 6.00

SMILES: C[C@H](N)C(=O)NCC(=O)N[C@H]1CSSC[C@@H](C(=O)O)NC(=O)[C@H](CO)NC(=O)[C@H]([C@@H](C)O)NC(=O)[C@H](Cc2ccccc2)NC(=O)[C@H]([C@@H](C)O)NC(=O)[C@H](CCCCN)NC(=O)[C@H](Cc2ccc3ccccc3c2)NC(=O)[C@H](Cc2ccccc2)NC(=O)[C@H](Cc2ccccc2)NC(=O)[C@H](CC(N)=O)NC(=O)[C@H](CCCCN)NC1=O
- Activity [1]: Active
- pEC50 [11]: 9.46
- pIC50 [3]: 8.82
- pIC50 [5]: 7.82
- pIC50 [6]: 7.16
- pIC50 [7]: 8.57
- pIC50 [10]: 7.92

SMILES: C[C@H](N)C(=O)NCC(=O)N[C@H]1CSSC[C@@H](C(=O)O)NC(=O)[C@H](CO)NC(=O)[C@H]([C@@H](C)O)NC(=O)[C@H](Cc2ccccc2)NC(=O)[C@H]([C@@H](C)O)NC(=O)[C@H](CCCCN)NC(=O)[C@@H](Cc2ccc(O)cc2)NC(=O)[C@H](Cc2ccccc2)NC(=O)[C@H](Cc2ccccc2)NC(=O)[C@H](CC(N)=O)NC(=O)[C@H](CCCCN)NC1=O
- Activity [1]: Active
- pEC50 [11]: 9.06
- pIC50 [3]: 8.70
- pIC50 [5]: 8.39
- pIC50 [6]: 7.39
- pIC50 [7]: 6.85
- pIC50 [10]: 7.80

SMILES: C[C@@H](O)[C@@H]1NC(=O)[C@H](CCCCN)NC(=O)[C@H](Cc2c[nH]c3ccccc23)NC(=O)[C@H](Cc2ccccc2)NC(=O)[C@H](Cc2ccccc2)NC(=O)[C@@H](N)CSSC[C@@H](C(=O)O)NC(=O)[C@H](Cc2ccccc2)NC1=O (H-CFFWKTFC-OH; disulfide 1-8)
- Activity [1]: Active
- pEC50 [2]: 8.33
- pIC50 [6]: 7.80
